In brackets after ≈: the same amount, converted by molar mass. Where a SMILES comes first, the peptide text is derived from it.
Columns and labels:
Gram-positive bacteria = assay: MIC against Gram-positive bacteria; type: cell-based; settings: broth microdilution
Experimental: (§1) The broth microdilution procedure involves preparing CAMHB broth, a bacterial suspension adjusted to McFarland 0.5 (1.5 × 10^8 CFU/mL) and diluted 200×, and a drug solution at 2× the final target concentration. To achieve a 400× final bacterial dilution, add 100 μL of the drug at different doses to a 96-well plate, then 100 μL of the diluted bacterial culture. Measure the initial absorbance (0 h), incubate at 37 °C for 16–18 h, and measure the final absorbance. With no change in absorbance, the MIC signifies the absence of bacterial growth.

E. coil ATCC25922 = type: cell-based, E. coli
Experimental: as §1

THP-1 = type: cell-based; settings: 72 h
CRAB isolate AB-18 = type: cell-based, A. baumannii
Description: (§2) The blood samples of patients from Kaohsiung Medical University were used to collect and cryopreserve all of the CRAB clinical isolates. Analytical graded chemicals and reagents were utilized throughout the investigation. The T2–02 peptide (MW 2646.27 Da) was custom-synthesized by Kelowna International Scientific Inc., 1,2-[…]-sn-glycero-3-phosphoethanolamine-N-[methoxy(polyethylene glycol)-2000] (ammonium salt) (DSPE-PEG2000, MW 2693.285 Da) was purchased from Laysan Bio Inc., 1,2-Dioleoyl-sn-glycero-3-phosphocholine (DOPC, MW 786.1 Da) was acquired from BroadPharm, and Poly-L-lysine hydrobromide (30–70 kDa) was sourced from Sigma-Aldrich.
as §1

CRAB isolate AB-24 = type: cell-based, A. baumannii
Description: as §2, §1

CRAB isolate AB-13 = type: cell-based, A. baumannii
Description: as §2, §1

CRAB isolate AB-16 = type: cell-based, A. baumannii
Description: as §2, §1

CRAB isolate AB-01 = type: cell-based, A. baumannii
Description: as §2, §1

CRAB isolate AB-02 = type: cell-based, A. baumannii
Description: as §2, §1

CRAB isolate AB-20 = type: cell-based, A. baumannii
Description: as §2, §1

CRAB isolate AB-22 = type: cell-based, A. baumannii
Description: as §2, §1

CRAB isolate AB-07 = type: cell-based, A. baumannii
Description: as §2, §1

CRAB isolate AB-03 = type: cell-based, A. baumannii
Description: as §2, §1

CRAB isolate AB-19 = type: cell-based, A. baumannii
Description: as §2, §1

CRAB isolate AB-04 = type: cell-based, A. baumannii
Description: as §2, §1

CRAB isolate AB-06 = type: cell-based, A. baumannii
Description: as §2, §1

CRAB isolate AB-05 = type: cell-based, A. baumannii
Description: as §2, §1

CRAB isolate AB-15 = type: cell-based, A. baumannii
Description: as §2, §1

CRAB isolate AB-17 = type: cell-based, A. baumannii
Description: as §2, §1

CRAB isolate AB-08 = type: cell-based, A. baumannii
Description: as §2, §1

CRAB isolate AB-10 = type: cell-based, A. baumannii
Description: as §2, §1

CRAB isolate AB-23 = type: cell-based, A. baumannii
Description: as §2, §1

CRAB isolate AB-21 = type: cell-based, A. baumannii
Description: as §2, §1

CRAB isolate AB-11 = type: cell-based, A. baumannii
Description: as §2, §1

CRAB isolate AB-14 = type: cell-based, A. baumannii
Description: as §2, §1

CRAB isolate AB-09 = type: cell-based, A. baumannii
Description: as §2, §1

CRAB isolate AB-12 = type: cell-based, A. baumannii
Description: as §2, §1

HK-2 cells = assay: Cytotoxicity assay (MTT); type: cell-based
Experimental: (§3) We tested the cytotoxicity of several antibiotic compounds, including peptides and nanoparticles, on the human embryonic kidney cell lines HEK-293, HK-2, and […]. The cells were stored in DMEM medium and incubated at 37 °C with 5% CO2 in a humidifying environment. Using the MTT (methylthiazolyldiphenyl-tetrazolium bromide) test, cell viability was evaluated. Following a 5 × 10^3 cell/mL seeding in 96-well plates, the cells were exposed to 100 μL of samples at varying concentrations (12.5–200 μM) during 72 h at 37 °C. Later, each well is loaded with MTT solution (5 mg/mL in PBS) at a volume of 10 μL. The plates were left in the dark for 4 h. After forming formazan crystals due to the action of mitochondrial reductases in living cells, the crystals were dissolved using a solubilizing solution (pH 4.7, 40% dimethylformamide, 2% glacial acetic acid, and 16% sodium dodecyl sulfate) were shaken at 150 rpm and incubated for an hour at 37 °C. Using graphical plot analysis, the IC50 value–the concentration that results in 50% cell death–was obtained by measuring the absorbance of the dissolved formazan at 570 nm. The average of three independent tests, each carried out in triplicate, was used to display the results.

HEK293 = type: cell-based, human; settings: 72 h
Experimental: as §3

S. aureus ATCC700698 = type: cell-based
Experimental: as §1

S. aureus ATCC33592 = type: cell-based
Experimental: as §1

P. aeruginosa ATCC27853 = type: cell-based
Experimental: as §1

S. aureus ATCC25923 = type: cell-based
Experimental: as §1

A. baumannii ATCC19606 = type: cell-based
Experimental: as §1

[1] = tested on: K. pneumoniae ATCC BAA-1705; type: cell-based
Experimental: as §1

[2] = tested on: A. baumannii ATCC BAA-747; type: cell-based
Experimental: as §1

[3] = tested on: K. pneumoniae ATCCC700603; type: cell-based
Experimental: as §1

S. aureus ATCC29213 = type: cell-based
Experimental: as §1

E. faecalis ATCC 29212 = type: cell-based
Experimental: as §1

In the case of `CC[C@H](C)[C@H](NC(=O)[C@H](CCCCN)NC(=O)CNC(=O)[C@H](CCCNC(=N)N)NC(=O)[C@H](CCCNC(=N)N)NC(=O)[C@H](CCCCN)NC(=O)[C@H](CC(C)C)NC(=O)[C@H](CC(C)C)NC(=O)[C@H](CCCNC(=N)N)NC(=O)[C@H](CCCCN)NC(=O)[C@H](Cc1c[nH]c2ccccc12)NC(=O)[C@H](CC(C)C)NC(=O)[C@H](C)N)C(=O)N[C@H](C(=O)N[C@@H](CC(C)C)C(=O)N[C@@H](CC(N)=O)C(=O)N[C@@H](CCC(=O)O)C(=O)N[C@@H](CCCNC(=N)N)C(=O)N[C@@H](CC(C)C)C(=O)N[C@@H](CCCNC(=N)N)C(=O)N[C@@H](CC(C)C)C(=O)O)[C@@H](C)CC` [T2–02] (H-ALWKRLLKRRGKIILNERLRL-OH), the “MIC against Gram-positive bacteria (range)” value (Gram-positive bacteria) is reported as 64 to 256 µg/mL, the MIC (E. coil ATCC25922) is reported as 64 µg/mL (≈ 24.2 µM) and the “IC50 THP-1” value (THP-1) is reported as 866 µg/mL (≈ 327 µM). The MIC (CRAB isolate AB-18) was 16 µg/mL (≈ 6.05 µM), the MIC (CRAB isolate AB-24) was 8 µg/mL (≈ 3.02 µM) and the MIC (CRAB isolate AB-13) was 4 µg/mL (≈ 1.51 µM). It also gave an MIC (CRAB isolate AB-16) of 16 µg/mL (≈ 6.05 µM), an MIC (CRAB isolate AB-01) of 8 µg/mL (≈ 3.02 µM) and an MIC (CRAB isolate AB-02) of 8 µg/mL (≈ 3.02 µM). It also gave an MIC (CRAB isolate AB-20) of 8 µg/mL (≈ 3.02 µM), an MIC (CRAB isolate AB-22) of 8 µg/mL (≈ 3.02 µM) and an MIC (CRAB isolate AB-07) of 8 µg/mL (≈ 3.02 µM). The MIC (CRAB isolate AB-03) was 4 µg/mL (≈ 1.51 µM), the MIC (CRAB isolate AB-19) was 8 µg/mL (≈ 3.02 µM) and the MIC (CRAB isolate AB-04) was 8 µg/mL (≈ 3.02 µM). For the same compound, the MIC (CRAB isolate AB-06) was 8 µg/mL (≈ 3.02 µM), the MIC (CRAB isolate AB-05) was 8 µg/mL (≈ 3.02 µM) and the MIC (CRAB isolate AB-15) was 8 µg/mL (≈ 3.02 µM). It also gave an MIC (CRAB isolate AB-17) of 8 µg/mL (≈ 3.02 µM), an MIC (CRAB isolate AB-08) of 8 µg/mL (≈ 3.02 µM) and an MIC (CRAB isolate AB-10) of 8 µg/mL (≈ 3.02 µM). The MIC (CRAB isolate AB-23) was 8 µg/mL (≈ 3.02 µM), the MIC (CRAB isolate AB-21) was 8 µg/mL (≈ 3.02 µM) and the MIC (CRAB isolate AB-11) was 8 µg/mL (≈ 3.02 µM). For the same compound, the MIC (CRAB isolate AB-14) was 8 µg/mL (≈ 3.02 µM), the MIC (CRAB isolate AB-09) was 8 µg/mL (≈ 3.02 µM) and the MIC (CRAB isolate AB-12) was 16 µg/mL (≈ 6.05 µM). For the same compound, the “Cytotoxicity HK-2 related to PMB” value (HK-2 cells) was 30.9, the “IC50 HK-2” value (HK-2 cells; concentration causing 50% cell death, MTT, 72 h, 37 °C, average of three independent tests in triplicate) was 557 µg/mL (≈ 210 µM) and the “IC50 HEK293” value (HEK293) was 1101 µg/mL (≈ 416 µM). The MIC (S. aureus ATCC700698) was 256 µg/mL (≈ 96.7 µM), the MIC (S. aureus ATCC33592) was 256 µg/mL (≈ 96.7 µM) and the MIC (P. aeruginosa ATCC27853) was 8 µg/mL (≈ 3.02 µM). It also gave an MIC (S. aureus ATCC25923) of 256 µg/mL (≈ 96.7 µM), an MIC (A. baumannii ATCC19606) of 8 µg/mL (≈ 3.02 µM) and an MIC [1] of 512 µg/mL (≈ 193 µM). It also gave an MIC [2] of 8 µg/mL (≈ 3.02 µM), an MIC [3] of 128 µg/mL (≈ 48.4 µM) and an MIC (S. aureus ATCC29213) of 64 µg/mL (≈ 24.2 µM). The MIC (E. faecalis ATCC 29212) was 64 µg/mL (≈ 24.2 µM).

Reference: article PMC12284850, “In Silico Design of Antimicrobial Peptides against Carbapenem-Resistant Infections with Enhanced Activity by Nanoformulation” (ACS Applied Bio Materials, 2025)
